Key:
Format in all cases: in vivo
[1] = system: galium (catchweed bedstraw, Galium aparine); assay: Test A postemergence; details: Galium, post-emergence, 240 h, 0 to 100 scale, read-out: Plant response rating, Galium
Method in brief: (§1)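 Injury scores run from 0, no effect, to 100, complete control, judged by eye against untreated plants roughly 10 days after treatment. Chemicals carried a surfactant in a non-phytotoxic solvent and went onto loam–sand soil preemergence or onto one- to two-leaf seedlings postemergence.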

[2] = system: giant foxtail (Setaria faberii); assay: Test A postemergence; details: Setaria faberi, post-emergence, 240 h, 0 to 100 scale, read-out: Plant response rating, Foxtail, Giant
Method in brief: as §1

corn (Zea mays) = assay: Test A postemergence; details: Zea mays, post-emergence, 240 h, 0 to 100 scale
Method in brief: as §1

[3] = system: pigweed (Amaranthus retroflexus); assay: Test A postemergence; details: Amaranthus retroflexus, post-emergence, 240 h, 0 to 100 scale, read-out: Plant response rating, Pigweed
Method in brief: as §1

[4] = system: Italian ryegrass (Lolium multiflorum); assay: Test A postemergence; details: Lolium multiflorum, post-emergence, 240 h, 0 to 100 scale, read-out: Plant response rating, Ryegrass, Italian
Method in brief: as §1

kochia (Kochia scoparia) [5] = assay: Test A postemergence; details: Bassia scoparia, post-emergence, 240 h, 0 to 100 scale, read-out: Plant response rating, Kochia
Method in brief: as §1

[6] = system: blackgrass (Alopecurus myosuroides); assay: Test A postemergence; details: Alopecurus myosuroides, post-emergence, 240 h, 0 to 100 scale, read-out: Plant response rating, Blackgrass
Method in brief: as §1

[7] = system: wheat (Triticum aestivum); assay: Test A postemergence; details: Triticum aestivum, post-emergence, 240 h, 0 to 100 scale, read-out: Plant response rating, Wheat
Method in brief: as §1

[8] = system: ragweed (common ragweed, Ambrosia elatior); assay: Test A postemergence; details: Ambrosia artemisiifolia, post-emergence, 240 h, 0 to 100 scale, read-out: Plant response rating, Ragweed
Method in brief: as §1

[9] = system: barnyardgrass (Echinochloa crus-galli); assay: Test A postemergence; details: Echinochloa crus-galli, post-emergence, 240 h, 0 to 100 scale, read-out: Plant response rating, Barnyardgrass
Method in brief: as §1

[10] = system: galium (catchweed bedstraw, Galium aparine); assay: Test C postemergence; details: Galium, post-emergence, 336 h, Postemergence, scale 0 to 100, read-out: Plant response rating, Galium
Method in brief: (§2)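 Visual ratings were made 13-15 days after treatment in the greenhouse, scored 0-100 against controls, where 100 means complete control. Treatments used a surfactant-containing non-phytotoxic solvent formulation, applied preemergence to seeds in loam-sand soil or postemergence to 2-18 cm plants (1-4 leaves) in peat-based medium.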

[11] = system: giant foxtail (Setaria faberii); assay: Test C postemergence; details: Setaria faberi, post-emergence, 336 h, Postemergence, scale 0 to 100, read-out: Plant response rating, Foxtail, Giant
Method in brief: as §2

[12] = system: morningglory (Ipomoea coccinea); assay: Test C postemergence; details: Ipomoea, post-emergence, 336 h, Postemergence, scale 0 to 100, read-out: Plant response rating, Morningglory
Method in brief: as §2

rice (Oryza sativa) = assay: Test B flooded paddy; details: Oryza sativa, 336 h; 250 g ai/ha, Flood, 13 to 15 days, scale 0 (no effect) to 100 (complete control); read-out: Plant response rating, Rice
Method in brief: (§3)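 Compound was added to standing water 3 cm above soil, flood maintained, and plants held in a greenhouse before visual scoring against controls at 13 to 15 days.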

[13] = system: sedge, umbrella (small-flower umbrella sedge, Cyperus difformis); assay: Test B flooded paddy; details: Cyperus difformis, 336 h; 250 g ai/ha, Flood, 13 to 15 days, scale 0 (no effect) to 100 (complete control); read-out: Plant response rating, Sedge, Umbrella
Method in brief: as §3

[14] = system: barnyardgrass (Echinochloa crus-galli); assay: Test B flooded paddy; details: Echinochloa crus-galli, 336 h; 250 g ai/ha, Flood, 13 to 15 days, scale 0 (no effect) to 100 (complete control); read-out: Plant response rating, Barnyardgrass
Method in brief: as §3

[15] = system: ducksalad (Heteranthera limosa); assay: Test B flooded paddy; details: Heteranthera limosa, 336 h; 250 g ai/ha, Flood, 13 to 15 days, scale 0 (no effect) to 100 (complete control); read-out: Plant response rating, Ducksalad
Method in brief: as §3

[16] = system: giant foxtail (Setaria faberii); assay: Test A preemergence; details: Setaria faberi, pre-emergence, 240 h
Method in brief: as §1

[17] = system: pigweed (Amaranthus retroflexus); assay: Test A preemergence; details: Amaranthus retroflexus, pre-emergence, 240 h
Method in brief: as §1

[18] = system: Italian ryegrass (Lolium multiflorum); assay: Test A preemergence; details: Lolium multiflorum, pre-emergence, 240 h
Method in brief: as §1

kochia (Kochia scoparia) [19] = assay: Test A preemergence; details: Bassia scoparia, pre-emergence, 240 h
Method in brief: as §1

[20] = system: ragweed (common ragweed, Ambrosia elatior); assay: Test A preemergence; details: Ambrosia artemisiifolia, pre-emergence, 240 h
Method in brief: as §1

[21] = system: barnyardgrass (Echinochloa crus-galli); assay: Test A preemergence; details: Echinochloa crus-galli, pre-emergence, 240 h
Method in brief: as §1

Q: Which pest or weed control at 125 g/ha ([1]; 125 g ai/ha) does the source give for Fc1cccc(Oc2ncc(Cl)cn2)c1Oc1ncc(C(F)(F)F)cn1 [Compound 43, 5-chloro-2-[5-fluoro-6-[[5-(trifluoromethyl)-2-pyrimidinyl]oxy]phenoxy]pyrimidine] here?
A: Its pest or weed control at 125 g/ha is 100%.

Q: What about the pest or weed control at 500 g/ha ([1]; 500 g ai/ha) of the same molecule?
A: Its pest or weed control at 500 g/ha is 100%.

Q: And the pest or weed control at 125 g/ha ([2]; 125 g ai/ha)?
A: The pest or weed control at 125 g/ha was 90%.

Q: And the pest or weed control at 500 g/ha ([2]; 500 g ai/ha)?
A: The pest or weed control at 500 g/ha was 100%.

Q: And the Corn plant response rating (crop injury, 0 = no effect, 100 = complete kill) at 125 g/ha (corn (Zea mays); 125 g ai/ha)?
A: Its Corn plant response rating (crop injury, 0 = no effect, 100 = complete kill) at 125 g/ha is 70%.

Q: And the Corn plant response rating (crop injury, 0 = no effect, 100 = complete kill) at 500 g/ha (corn (Zea mays); 500 g ai/ha)?
A: The Corn plant response rating (crop injury, 0 = no effect, 100 = complete kill) at 500 g/ha was 100%.

Q: And the pest or weed control at 125 g/ha ([3]; 125 g ai/ha)?
A: The pest or weed control at 125 g/ha was 100%.

Q: What about the pest or weed control at 500 g/ha ([3]; 500 g ai/ha) of the same molecule?
A: Its pest or weed control at 500 g/ha is 100%.

Q: And the pest or weed control at 125 g/ha ([4]; 125 g ai/ha)?
A: The pest or weed control at 125 g/ha was 80%.

Q: What about the pest or weed control at 500 g/ha ([4]; 500 g ai/ha) of the same molecule?
A: Its pest or weed control at 500 g/ha is 100%.

Q: And the pest or weed control at 125 g/ha (kochia (Kochia scoparia) [5]; 125 g ai/ha)?
A: The pest or weed control at 125 g/ha was 100%.

Q: What about the pest or weed control at 500 g/ha (kochia (Kochia scoparia) [5]; 500 g ai/ha) of the same molecule?
A: Its pest or weed control at 500 g/ha is 100%.

Q: And the pest or weed control at 125 g/ha ([6]; 125 g ai/ha)?
A: Its pest or weed control at 125 g/ha is 90%.

Q: What about the pest or weed control at 500 g/ha ([6]; 500 g ai/ha) of the same molecule?
A: Its pest or weed control at 500 g/ha is 100%.

Q: And the plant injury at 125 g/ha ([7]; 125 g ai/ha)?
A: Its plant injury at 125 g/ha is 80%.

Q: And the plant injury at 500 g/ha ([7]; 500 g ai/ha)?
A: Its plant injury at 500 g/ha is 100%.

Q: And the pest or weed control at 125 g/ha ([8]; 125 g ai/ha)?
A: Its pest or weed control at 125 g/ha is 70%.

Q: And the pest or weed control at 500 g/ha ([8]; 500 g ai/ha)?
A: Its pest or weed control at 500 g/ha is 100%.

Q: What about the pest or weed control at 125 g/ha ([9]; 125 g ai/ha) of the same molecule?
A: The pest or weed control at 125 g/ha was 90%.

Q: What about the pest or weed control at 500 g/ha ([9]; 500 g ai/ha) of the same molecule?
A: The pest or weed control at 500 g/ha was 100%.

Q: What about the pest or weed control at 16 g/ha ([10]; 16 g ai/ha) of the same molecule?
A: The pest or weed control at 16 g/ha was 35%.

Q: And the pest or weed control at 31 g/ha ([10]; 31 g ai/ha)?
A: Its pest or weed control at 31 g/ha is 80%.

Q: What about the pest or weed control at 62 g/ha ([10]; 62 g ai/ha) of the same molecule?
A: Its pest or weed control at 62 g/ha is 85%.

Q: And the pest or weed control at 125 g/ha ([10]; 125 g ai/ha)?
A: Its pest or weed control at 125 g/ha is 90%.

Q: And the pest or weed control at 16 g/ha ([11]; 16 g ai/ha)?
A: Its pest or weed control at 16 g/ha is 5%.

Q: What about the pest or weed control at 31 g/ha ([11]; 31 g ai/ha) of the same molecule?
A: The pest or weed control at 31 g/ha was 5%.

Q: And the pest or weed control at 62 g/ha ([11]; 62 g ai/ha)?
A: Its pest or weed control at 62 g/ha is 15%.

Q: What about the pest or weed control at 125 g/ha ([11]; 125 g ai/ha) of the same molecule?
A: Its pest or weed control at 125 g/ha is 35%.

Q: And the pest or weed control at 31 g/ha ([12]; 31 g ai/ha)?
A: The pest or weed control at 31 g/ha was 85%.

Q: And the pest or weed control at 62 g/ha ([12]; 62 g ai/ha)?
A: The pest or weed control at 62 g/ha was 80%.

Q: And the pest or weed control at 125 g/ha ([12]; 125 g ai/ha)?
A: Its pest or weed control at 125 g/ha is 80%.

Q: What about the plant injury at 250 g/ha (rice (Oryza sativa)) of the same molecule?
A: Its plant injury at 250 g/ha is 60%.

Q: What about the pest or weed control at 250 g/ha [13] of the same molecule?
A: Its pest or weed control at 250 g/ha is 90%.

Q: And the pest or weed control at 250 g/ha [14]?
A: Its pest or weed control at 250 g/ha is 85%.

Q: And the pest or weed control at 250 g/ha [15]?
A: Its pest or weed control at 250 g/ha is 100%.

Q: What about the pest or weed control at 125 g/ha ([16]; 125 g ai/ha, 0 to 100 scale (0 no effect, 100 complete control), read-out: Foxtail, Giant plant response rating) of the same molecule?
A: Its pest or weed control at 125 g/ha is 100%.

Q: What about the pest or weed control at 500 g/ha ([16]; 500 g ai/ha, 0 to 100 scale, read-out: Plant response rating, Foxtail, Giant) of the same molecule?
A: The pest or weed control at 500 g/ha was 100%.

Q: What about the pest or weed control at 125 g/ha ([17]; 125 g ai/ha, 0 to 100 scale (0 no effect, 100 complete control), read-out: Pigweed plant response rating) of the same molecule?
A: The pest or weed control at 125 g/ha was 100%.

Q: What about the pest or weed control at 500 g/ha ([17]; 500 g ai/ha, 0 to 100 scale, read-out: Plant response rating, Pigweed) of the same molecule?
A: The pest or weed control at 500 g/ha was 100%.

Q: And the pest or weed control at 125 g/ha ([18]; 125 g ai/ha, 0 to 100 scale (0 no effect, 100 complete control), read-out: Ryegrass, Italian plant response rating)?
A: Its pest or weed control at 125 g/ha is 50%.

Q: What about the pest or weed control at 500 g/ha ([18]; 500 g ai/ha, 0 to 100 scale, read-out: Plant response rating, Ryegrass, Italian) of the same molecule?
A: The pest or weed control at 500 g/ha was 100%.

Q: What about the pest or weed control at 125 g/ha (kochia (Kochia scoparia) [19]; 125 g ai/ha, 0 to 100 scale (0 no effect, 100 complete control), read-out: Kochia plant response rating) of the same molecule?
A: Its pest or weed control at 125 g/ha is 100%.

Q: What about the pest or weed control at 500 g/ha (kochia (Kochia scoparia) [19]; 500 g ai/ha, 0 to 100 scale, read-out: Plant response rating, Kochia) of the same molecule?
A: Its pest or weed control at 500 g/ha is 100%.

Q: And the pest or weed control at 125 g/ha ([20]; 125 g ai/ha, 0 to 100 scale (0 no effect, 100 complete control), read-out: Ragweed plant response rating)?
A: Its pest or weed control at 125 g/ha is 70%.

Q: And the pest or weed control at 500 g/ha ([20]; 500 g ai/ha, 0 to 100 scale, read-out: Plant response rating, Ragweed)?
A: Its pest or weed control at 500 g/ha is 100%.

Q: And the pest or weed control at 125 g/ha ([21]; 125 g ai/ha, 0 to 100 scale (0 no effect, 100 complete control), read-out: Barnyardgrass plant response rating)?
A: The pest or weed control at 125 g/ha was 100%.

Q: What about the pest or weed control at 500 g/ha ([21]; 500 g ai/ha, 0 to 100 scale, read-out: Plant response rating, Barnyardgrass) of the same molecule?
A: Its pest or weed control at 500 g/ha is 100%.

Reference: patent US20170190671A1, “BIS(ARYL)CATECHOL DERIVATIVES AS HERBICIDES” (E I DU PONT DE NEMOURS AND COMPANY, priority 2014, published 2017)
